Results taken from ChEMBL document CHEMBL1146398, “Cardenolides from the methanolic extract of Nerium oleander leaves possessing central nervous system depressant activity in mice” (J Nat Prod, 1997).
Active and inactive are the calls of the source. The rule behind the calls is not given here.

Experiments:
Type in all cases: functional, organism-based
[1] = test system: Mus musculus; assay: Central nervous system depression activity in mouse assessed as tremors on movement at 50 mg/kg, ip after 60 mins; set-up: dose 50 mg/kg
[2] = test system: Mus musculus; assay: Central nervous system depression activity in mouse assessed as decrease in touch response at 25 mg/kg, ip; set-up: dose 25 mg/kg
[3] = test system: Mus musculus; assay: Central nervous system depression activity in mouse assessed as decrease in locomotor activity at 50 mg/kg, ip; set-up: dose 50 mg/kg
[4] = test system: Mus musculus; assay: Central nervous system depression activity in mouse assessed as staggering gait at 25 mg/kg, ip after 30 mins; set-up: dose 25 mg/kg
[5] = test system: Mus musculus; assay: Central nervous system depression activity in mouse assessed as induction of passivity at 50 mg/kg, ip after 60 mins; set-up: dose 50 mg/kg
[6] = test system: Mus musculus; assay: Central nervous system depression activity in mouse assessed as decrease in body and limb tone at 50 mg/kg, ip after 60 mins; set-up: dose 50 mg/kg
[7] = test system: Mus musculus; assay: Central nervous system depression activity in mouse assessed as abduction of limbs at 50 mg/kg, ip after 60 mins; set-up: dose 50 mg/kg
[8] = test system: Mus musculus; assay: Central nervous system depression activity in mouse assessed as fast respiration at 50 mg/kg, ip after 40 mins; set-up: dose 50 mg/kg
[9] = test system: Mus musculus; assay: Central nervous system depression activity in mouse assessed as decrease in touch response at 50 mg/kg, ip; set-up: dose 50 mg/kg
[10] = test system: Mus musculus; assay: Central nervous system depression activity in mouse assessed as staggering gait at 50 mg/kg, ip after 40 mins; set-up: dose 50 mg/kg
[11] = test system: Mus musculus; assay: Central nervous system depression activity in mouse assessed as decrease in locomotor activity at 25 mg/kg, ip; set-up: dose 25 mg/kg
[12] = test system: Mus musculus; assay: Central nervous system depression activity in mouse assessed as passivity at 25 mg/kg, ip; set-up: dose 25 mg/kg
[13] = test system: Mus musculus; assay: Central nervous system depression activity in mouse assessed as ptosis at 25 mg/kg, ip; set-up: dose 25 mg/kg
[14] = test system: Mus musculus; assay: Central nervous system depression activity in mouse assessed as staggering gait at 25 mg/kg, ip; set-up: dose 25 mg/kg

| Structure (SMILES) | Activity [1] | Activity [2] | Activity [3] | Activity [4] | Activity [5] | Activity [6] | Activity [7] | Activity [8] | Activity [9] | Activity [10] | Activity [11] | Activity [12] | Activity [13] | Activity [14] |
| --- | --- | --- | --- | --- | --- | --- | --- | --- | --- | --- | --- | --- | --- | --- |
| CO[C@H]1[C@@H](O)[C@@H](C)O[C@@H](O[C@H]2CC[C@@]3(C)[C@H](CC[C@@H]4[C@@H]3CC[C@]3(C)[C@@H](C5=CC(=O)OC5)[C@@H](OC(C)=O)C[C@]43O)C2)[C@@H]1O | Active | inactive | Active | Active | Active | Active | Active | Active | – | – | – | – | – | – |
| CO[C@H]1[C@H](O[C@H]2CC[C@@]3(C)[C@H](CC[C@@H]4[C@@H]3CC[C@]3(C)C(C5=CC(=O)OC5)=CC[C@]43O)C2)O[C@H](C)[C@H](O)[C@@H]1OC | – | inactive | Active | – | – | – | – | – | Active | Active | Active | – | – | – |
| CO[C@H]1[C@@H](O)[C@@H](C)O[C@@H](O[C@H]2CC[C@@]3(C)[C@H](CC[C@@H]4[C@@H]3CC[C@]3(C)[C@@H](C5=CC(=O)OC5)CC[C@]43O)C2)[C@@H]1O | – | Active | Active | – | – | – | – | – | – | – | Active | Active | Active | Active |
